{"source": "patent US20230255972A1", "about": "“PYRIMIDINE COMPOUND-CONTAINING COMBINATION TO BE USED IN TUMOR TREATMENT” (TAIHO PHARMACEUTICAL CO., LTD., priority 2020, published 2023)", "key": {"[1]": {"test_system": "Human stomach cancer-derived tumor cells 4-1ST", "conditions": "for BWC (%, Mean ± SE) / T/C (%) / TV (mm^3, mean ± SE): Day 15; for BWC (%, Mean ± SE) / T/C (%) / TV (mm^3, mean ± SE) / Number of Death / cCR (%) / pCR (%): Days 1-14, po; for cCR (%): clinical CR (TV=0); for pCR (%): pathological CR", "protocol": "Tumor was removed approximately 1 month after subcutaneous transplantation and passage in a 6 week old male nude mouse (BALB/cAJc1-nu/nu, CLEA Japan, Inc.), and a fragment of approximately 2 mm square was prepared. A transplantation needle was filled with one fragment and subcutaneously inserted from around the right last rib of each nude mouse so as to enter the right back. The tumor was pushed out by pressing the inner syringe and thereby transplanted. For the measurement of the tumor size, electronic calipers were used. […] A tumor volume (TV) was calculated from this major axis and minor axis. A relative tumor volume change percentage (T/C) was calculated from the calculated tumor volume. TV and T/C were calculated according to the following equations:\n(§5) Tumor Volume (TV)(mm^3)=(Major axis,mm)×(Minor axis,mm)×(Minor axis,mm)/2\n(§6) Relative tumor volume change percentage (T/C)(%)=(Mean TV of the administration group)/(Mean TV of a control group)×100\n(§7) For the measurement of the body weight, an animal electronic balance was used. A body weight change percentage on the n^th day (BWCn) from the body weight on 0th day (BW0) and the body weight on the n^th day (BWn) was calculated according to the following equation:\n(§8) Body weight change percentage BWCn (%)=(BWn−BW0)/BW0×100\nNude mice having TV of 100 to 300 mm^3 were selected and assigned to groups each involving 6 animals by the equal number method [MiSTAT (ver. 2.0)] such that the means of TV were equal among the groups. […] An untreated group was used as a control.\n(§9) The presence or absence of a combinatorial effect and toxicity was judged from the tumor sizes and the body weights on the grouping day (Day 0) and the judgement day (Day 15). During the administration period, the body weight was measured every day for calculation of the amount of the dosing solution.\nWhen an individual of TV=0 was found, a complete response (hereinafter, CR) rate was also set as an evaluation item. For the judgement of CR, clinical CR (cCR) based on TV=0 and pathological CR (pCR) based on pathological test were used.\nCR rate=(The number of CR individuals in a group found to have CR)/(Total number of individuals in the group found to have CR)×100"}, "[2]": {"test_system": "human stomach cancer cell line NCI-N87", "assay": "Combination (in vivo) of pyrimidine compound and capecitabine, NCI-N87 subcutaneous model", "method": "Test Example 18 Combination (In Vivo) of Pyrimidine Compound and Capecitabine\nA human stomach cancer cell line NCI-N87 was obtained from American Type Culture Collection (ATCC). The cell line was cultured in RPMI-1640 (containing 4.5 g/L glucose, 10 mM HEPES and 1 mM sodium pyruvate) (FUJIFILM Wako Pure Chemical Corporation) medium containing 10% fetal bovine serum (FBS) in a 5% CO2 incubator at 37° C.\nThe NCI-N87 cells were resuspended at a concentration of 8×10^7 cells/mL in PBS.\nAn aqueous solution containing 0.1 N HCl and 0.5% HPMC was used as a control."}, "[3]": {"target": "T1, EGFR [T790M/L858R] (Homo sapiens, UniProt P00533, L858R/T790M)", "T1 construct": "purchased Carna Biosciences, Inc", "T1 sequence (P00533 25-1210 T790M/L858R)": "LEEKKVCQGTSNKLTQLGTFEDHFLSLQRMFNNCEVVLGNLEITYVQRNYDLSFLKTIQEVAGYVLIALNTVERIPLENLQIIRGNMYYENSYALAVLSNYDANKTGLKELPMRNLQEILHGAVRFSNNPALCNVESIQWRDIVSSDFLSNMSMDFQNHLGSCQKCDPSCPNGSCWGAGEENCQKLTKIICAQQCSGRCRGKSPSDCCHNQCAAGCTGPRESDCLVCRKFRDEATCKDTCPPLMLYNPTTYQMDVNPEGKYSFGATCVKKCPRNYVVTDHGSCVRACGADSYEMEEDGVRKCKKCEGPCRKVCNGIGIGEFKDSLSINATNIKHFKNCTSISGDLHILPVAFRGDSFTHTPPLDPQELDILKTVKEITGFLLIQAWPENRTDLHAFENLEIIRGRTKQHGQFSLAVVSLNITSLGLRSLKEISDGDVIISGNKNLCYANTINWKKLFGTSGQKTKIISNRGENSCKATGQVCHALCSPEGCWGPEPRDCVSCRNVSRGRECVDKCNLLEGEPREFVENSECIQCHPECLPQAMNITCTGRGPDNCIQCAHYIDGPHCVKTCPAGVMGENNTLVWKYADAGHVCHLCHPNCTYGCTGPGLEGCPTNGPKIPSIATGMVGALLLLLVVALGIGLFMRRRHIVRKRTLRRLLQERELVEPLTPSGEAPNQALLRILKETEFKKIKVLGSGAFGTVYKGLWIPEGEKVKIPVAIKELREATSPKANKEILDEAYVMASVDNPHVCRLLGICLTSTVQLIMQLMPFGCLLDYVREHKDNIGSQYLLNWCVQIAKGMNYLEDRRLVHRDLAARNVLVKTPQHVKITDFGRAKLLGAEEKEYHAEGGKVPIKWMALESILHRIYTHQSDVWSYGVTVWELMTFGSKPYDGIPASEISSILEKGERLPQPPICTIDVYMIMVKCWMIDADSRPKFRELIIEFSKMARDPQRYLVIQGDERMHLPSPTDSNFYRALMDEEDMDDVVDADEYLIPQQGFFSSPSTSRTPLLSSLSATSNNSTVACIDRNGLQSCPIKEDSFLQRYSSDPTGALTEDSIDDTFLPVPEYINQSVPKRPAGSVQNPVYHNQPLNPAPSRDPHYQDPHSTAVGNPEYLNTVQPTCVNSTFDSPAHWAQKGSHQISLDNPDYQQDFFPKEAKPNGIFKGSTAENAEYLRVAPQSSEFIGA", "assay": "Phosphorylation activity inhibitory effect (in vitro) on mutant EGFR T790M/L858R", "type": "biochemical", "method": "(§1) Test Example 6 Measurement of Phosphorylation Activity Inhibitory Effect (In Vitro) on Wild-Type and Mutant EGFR\n(§2) The measurement of the in vitro inhibitory activity of a compound against wild-type and mutant EGFR was outsourced to Carna Biosciences, Inc. (Kinase Profiling Book, https://www.carnabio.com/japanese/product/search.cgi?mode=profiling).\n(§3) Specifically, first, the pyrimidine compound of the present invention was diluted stepwise with dimethyl sulfoxide (DMSO). […] To the reaction solution, Termination Buffer was added, so as to terminate the kinase reaction. Finally, using LabChip™ EZ Reader II (PerkinElmer), an unphosphorylated substrate peptide (S) and a phosphorylated peptide (P) were separated and detected according to microchannel capillary electrophoresis.\n(§4) As the pyrimidine compound of the present invention, the compound of Example 11 (Example compound 11) was used."}, "[4]": {"test_system": "Human stomach cancer-derived tumor cells 4-1ST", "protocol": "(§10) Human stomach cancer-derived tumor cells 4-1ST were obtained as fragment tumor from the Central Institute for Experimental Animals. Tumor was removed approximately 1 month after subcutaneous transplantation and passage in a 6 week old male nude mouse (BALB/cAJc1-nu/nu, CLEA Japan, Inc.), and a fragment of approximately 2 mm square was prepared. A transplantation needle was filled with one fragment and subcutaneously inserted from around the right last rib of each nude mouse so as to enter the right back. The tumor was pushed out by pressing the inner syringe and thereby transplanted. For the measurement of the tumor size, electronic calipers were used. […] A tumor volume (TV) was calculated from this major axis and minor axis. A relative tumor volume change percentage (T/C) was calculated from the calculated tumor volume. TV and T/C were calculated according to the following equations:\nas §5, §6, §7, §8\n(§11) Nude mice having TV of 50 to 300 mm^3 were selected and assigned to groups each involving 6 animals by the equal number method [MiSTAT (ver. 2.1)] such that the means of TV were equal among the groups. […] An untreated group was used as a control.\nas §9\nAn untreated group was used as a control."}, "[5]": {"test_system": "SK-BR-3 cells", "assay": "Growth inhibitory activity against HER2 expressing cell line SK-BR-3", "type": "cell-based", "conditions": "Homo sapiens, SK-BR-3, 72 h; 3 days, CellTiter-Glo 2.0", "method": "Test Example 3 Measurement of Growth Inhibitory Activity Against HER2 Expressing Cell Line\nSK-BR-3 cells as a HER2 overexpressing human breast cancer cell line were suspended in a McCoy's 5a medium (manufactured by Life Technologies) supplemented with 10% fetal bovine serum. The cell suspension was seeded in each well of a 384-well flat-bottom microplate, and was then cultured in a 5% carbon dioxide gas-containing culture vessel at 37° C. for 1 day. Thereafter, the compound of the present invention was dissolved in DMSO, and the pyrimidine compound was diluted to 500 times the final concentration in DMSO. The compound in the DMSO solution was diluted with DMSO solution or the medium used in the suspension of the cells, and the obtained solution was then added to each well of the culture plate so that the final concentration of DMSO was 0.2%. The obtained mixture was further cultured in the 5% carbon dioxide gas-containing culture vessel at 37° C. for 3 days. After completion of the culture for 3 days in the presence of the compound, the cells were counted using CellTiter-Glo 2.0 (manufactured by Promega), and the growth inhibition percentage was then calculated according to the following equation.\nGrowth inhibitory percentage (%)=(C−T)/(C)×100 […]"}, "[6]": {"target": "T2, EGFR [D770_N771insNPG] (Homo sapiens, UniProt P00533, INS770NPG)", "T2 construct": "purchased Carna Biosciences, Inc", "T2 sequence (P00533 with tags, fused parts or gaps INS770NPG limits assumed)": "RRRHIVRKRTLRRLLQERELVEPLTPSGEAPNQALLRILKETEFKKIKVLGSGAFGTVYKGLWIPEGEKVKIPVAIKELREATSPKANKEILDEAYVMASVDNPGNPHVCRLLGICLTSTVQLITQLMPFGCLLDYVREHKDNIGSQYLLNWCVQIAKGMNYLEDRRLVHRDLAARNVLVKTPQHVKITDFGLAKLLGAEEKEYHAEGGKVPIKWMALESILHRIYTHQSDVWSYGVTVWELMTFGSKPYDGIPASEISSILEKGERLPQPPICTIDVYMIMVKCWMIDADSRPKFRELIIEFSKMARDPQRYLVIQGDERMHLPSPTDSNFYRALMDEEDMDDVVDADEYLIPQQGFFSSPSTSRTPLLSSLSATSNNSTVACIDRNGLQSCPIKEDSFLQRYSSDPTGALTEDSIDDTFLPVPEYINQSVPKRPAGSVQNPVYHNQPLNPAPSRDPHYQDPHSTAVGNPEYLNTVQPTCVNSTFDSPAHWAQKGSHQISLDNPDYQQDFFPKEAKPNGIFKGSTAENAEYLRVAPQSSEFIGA", "assay": "Phosphorylation activity inhibitory effect (in vitro) on mutant EGFR D770_N771insNPG", "type": "biochemical", "method": "as §1, §2, §3, §4"}, "[7]": {"test_system": "Human stomach cancer-derived tumor cells 4-1ST", "conditions": "for BWC (%, Mean ± SE) / T/C (%) / TV (mm^3, mean ± SE): Day 15; for BWC (%, Mean ± SE) / T/C (%) / TV (mm^3, mean ± SE) / Number of Deaths: Days 1-14, po", "protocol": "as §10, §5, §6, §7, §8, §11, §9"}, "[8]": {"target": "T3, EGFR [L858R] (Homo sapiens, UniProt P00533, L858R)", "T3 construct": "purchased Carna Biosciences, Inc", "T3 sequence (P00533 25-1210 L858R)": "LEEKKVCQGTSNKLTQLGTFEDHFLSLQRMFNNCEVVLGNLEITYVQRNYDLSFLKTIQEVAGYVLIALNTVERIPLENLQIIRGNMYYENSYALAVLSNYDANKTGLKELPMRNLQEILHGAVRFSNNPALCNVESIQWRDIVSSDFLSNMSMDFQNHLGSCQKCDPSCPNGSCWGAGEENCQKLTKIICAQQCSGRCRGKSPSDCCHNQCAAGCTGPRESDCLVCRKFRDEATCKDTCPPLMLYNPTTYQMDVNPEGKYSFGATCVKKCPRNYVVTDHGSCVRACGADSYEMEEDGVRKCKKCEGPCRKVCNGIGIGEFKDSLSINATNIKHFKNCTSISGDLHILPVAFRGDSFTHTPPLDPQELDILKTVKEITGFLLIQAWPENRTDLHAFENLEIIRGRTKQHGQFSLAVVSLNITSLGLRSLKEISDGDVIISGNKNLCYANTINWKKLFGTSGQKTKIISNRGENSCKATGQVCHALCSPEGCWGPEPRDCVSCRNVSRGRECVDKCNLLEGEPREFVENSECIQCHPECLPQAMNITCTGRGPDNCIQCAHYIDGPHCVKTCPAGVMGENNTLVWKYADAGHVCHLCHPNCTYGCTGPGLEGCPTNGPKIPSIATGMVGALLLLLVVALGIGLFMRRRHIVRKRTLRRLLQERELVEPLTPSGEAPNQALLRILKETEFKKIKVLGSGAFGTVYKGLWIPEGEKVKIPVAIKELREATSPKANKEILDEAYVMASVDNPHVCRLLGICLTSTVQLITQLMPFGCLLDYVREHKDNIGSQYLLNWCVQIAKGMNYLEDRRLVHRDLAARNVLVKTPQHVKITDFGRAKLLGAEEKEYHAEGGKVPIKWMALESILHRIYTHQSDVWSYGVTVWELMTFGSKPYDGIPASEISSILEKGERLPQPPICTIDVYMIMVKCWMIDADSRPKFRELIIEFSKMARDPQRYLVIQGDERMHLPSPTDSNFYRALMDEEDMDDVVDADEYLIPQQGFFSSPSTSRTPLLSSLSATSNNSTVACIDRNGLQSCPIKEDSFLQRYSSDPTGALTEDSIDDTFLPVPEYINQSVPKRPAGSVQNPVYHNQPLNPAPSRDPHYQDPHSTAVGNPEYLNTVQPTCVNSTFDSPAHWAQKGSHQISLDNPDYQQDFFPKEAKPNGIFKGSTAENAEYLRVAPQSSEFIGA", "assay": "Phosphorylation activity inhibitory effect (in vitro) on mutant EGFR L858R", "type": "biochemical", "method": "as §1, §2, §3, §4"}, "[9]": {"target": "T4, EGFR [d746-750/T790M] (Homo sapiens, UniProt P00533, DEL746-750/T790M)", "T4 construct": "purchased Carna Biosciences, Inc", "T4 sequence (P00533 with tags, fused parts or gaps DEL746-750/T790M)": "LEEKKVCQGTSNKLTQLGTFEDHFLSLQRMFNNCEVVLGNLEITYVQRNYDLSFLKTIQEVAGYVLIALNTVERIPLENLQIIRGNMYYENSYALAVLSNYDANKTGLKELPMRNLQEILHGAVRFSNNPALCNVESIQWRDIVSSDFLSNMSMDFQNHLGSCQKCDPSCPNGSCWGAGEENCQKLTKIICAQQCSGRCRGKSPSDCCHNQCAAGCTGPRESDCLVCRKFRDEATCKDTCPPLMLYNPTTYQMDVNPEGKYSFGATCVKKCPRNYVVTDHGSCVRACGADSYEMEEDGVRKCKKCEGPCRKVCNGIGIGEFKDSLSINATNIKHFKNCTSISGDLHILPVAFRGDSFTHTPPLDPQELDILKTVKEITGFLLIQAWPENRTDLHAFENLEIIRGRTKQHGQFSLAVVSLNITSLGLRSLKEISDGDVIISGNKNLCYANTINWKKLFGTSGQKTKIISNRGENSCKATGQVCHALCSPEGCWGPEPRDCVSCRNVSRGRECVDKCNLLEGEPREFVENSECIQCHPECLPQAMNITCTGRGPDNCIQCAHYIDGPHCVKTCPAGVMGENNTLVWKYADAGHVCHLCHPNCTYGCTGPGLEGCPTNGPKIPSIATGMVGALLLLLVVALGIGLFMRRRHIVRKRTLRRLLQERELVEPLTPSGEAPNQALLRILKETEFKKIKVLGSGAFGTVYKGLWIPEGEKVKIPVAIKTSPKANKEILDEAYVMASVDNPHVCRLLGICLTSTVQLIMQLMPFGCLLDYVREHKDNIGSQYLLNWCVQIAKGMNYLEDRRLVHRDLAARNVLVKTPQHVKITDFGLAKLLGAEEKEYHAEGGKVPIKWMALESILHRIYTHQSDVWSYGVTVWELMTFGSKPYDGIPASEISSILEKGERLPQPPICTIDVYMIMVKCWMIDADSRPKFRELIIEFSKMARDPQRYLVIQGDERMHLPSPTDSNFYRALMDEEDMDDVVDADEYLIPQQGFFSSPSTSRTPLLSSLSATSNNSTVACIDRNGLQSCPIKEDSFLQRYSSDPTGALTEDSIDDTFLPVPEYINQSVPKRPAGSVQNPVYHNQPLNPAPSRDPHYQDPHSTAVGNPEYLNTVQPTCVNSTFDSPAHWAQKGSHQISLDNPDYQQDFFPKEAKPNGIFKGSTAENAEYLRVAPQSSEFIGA", "assay": "Phosphorylation activity inhibitory effect (in vitro) on mutant EGFR d746-750/T790M", "type": "biochemical", "method": "as §1, §2, §3, §4"}, "[10]": {"conditions": "day 15, Example 11 6.25 mg/kg/day, day 1-14, p.o."}, "[11]": {"conditions": "Day 15, Example 11 6.25 mg/kg/day, Days 1-14, po"}}, "note": "Like-named read-outs stand apart in the source and are kept apart here.", "data": [{"smiles": "C=CC(=O)N1C[C@H](n2c(C#CC3CC3)c(C(=O)N[C@H](C)c3ccccc3)c3c(N)ncnc32)C[C@@H]1C", "note": "[Example 11, 7-((3R,5S)-1-acryloyl-5-methylpyrrolidin-3-yl)-4-amino-6-(cyclopropylethynyl)-N—((R)-1-phenylethyl)-7H-pyrrolo[2,3-d]pyrimidine-5-carboxamide]", "values": [{"measurement": "BWC (%, Mean ± SE)", "setting": "[1]; Example 11 6.25 mg/kg/day", "result": "5.93 ± 0.25", "unit": "%"}, {"measurement": "T/C (%)", "setting": "[1]; Example 11 6.25 mg/kg/day", "result": 17.3, "unit": "%"}, {"measurement": "TV (mm^3, mean ± SE)", "setting": "[1]; Example 11 6.25 mg/kg/day", "result": "295.9 ± 67.3", "unit": "mm^3"}, {"measurement": "BWC (%, Mean ± SE)", "setting": "[1]; Example 11 12.5 mg/kg/day", "result": "4.77 ± 1.14", "unit": "%"}, {"measurement": "T/C (%)", "setting": "[1]; Example 11 12.5 mg/kg/day", "result": 1.9, "unit": "%"}, {"measurement": "TV (mm^3, mean ± SE)", "setting": "[1]; Example 11 12.5 mg/kg/day", "result": "31.9 ± 10.7", "unit": "mm^3"}, {"measurement": "Number of Death", "setting": "[1]; Example 11 6.25 mg/kg/day", "result": 0}, {"measurement": "Number of Death", "setting": "[1]; Example 11 12.5 mg/kg/day", "result": 0}, {"measurement": "TV on Day 15 versus control group (Dunnett's test)", "setting": "[1]; T-mab and P-mab iv Day 1, Example 11 po Days 1-14", "result": "significantly lower TV"}, {"measurement": "cCR (%)", "setting": "[1]; Example 11 6.25 mg/kg/day", "result": 0, "unit": "%"}, {"measurement": "cCR (%)", "setting": "[1]; Example 11 12.5 mg/kg/day", "result": 33, "unit": "%"}, {"measurement": "pCR (%)", "setting": "[1]; Example 11 6.25 mg/kg/day", "result": 0, "unit": "%"}, {"measurement": "pCR (%)", "setting": "[1]; Example 11 12.5 mg/kg/day", "result": 33, "unit": "%"}, {"measurement": "Number of Death", "setting": "[2]; Example 11 6.25 mg/kg/day, day 1-14, p.o.", "result": 0}, {"measurement": "TV on Day 15 versus control group (Dunnett's test)", "setting": "[2]; capecitabine and Example 11 po once a day, Days 1-14", "result": "significantly lower TV"}, {"measurement": "T/C (%)", "setting": "[2]; [10]", "result": 47, "unit": "%"}, {"measurement": "Tumor volume (mm^3) day 15 Mean ± S.E.", "setting": "[2]; [10]", "result": "272.43 ± 22.22", "unit": "mm^3"}, {"measurement": "BWC (%) Mean ± S.E.", "setting": "[2]; mouse, in vivo, po, 6.25 mg/kg/day", "result": "6.3 ± 0.9", "unit": "%"}, {"measurement": "IC50", "setting": "[3]", "result": 6.6, "unit": "nM"}, {"measurement": "BWC (%, Mean ± SE)", "setting": "[4]; [11]", "result": "4.0 ± 0.7", "unit": "%"}, {"measurement": "T/C (%)", "setting": "[4]; [11]", "result": 14.5, "unit": "%"}, {"measurement": "TV (mm^3, mean ± SE)", "setting": "[4]; [11]", "result": "233.6 ± 42.6", "unit": "mm^3"}, {"measurement": "Number of Death", "setting": "[4]; Example 11 6.25 mg/kg/day, Days 1-14, po", "result": 0}, {"measurement": "TV on Day 15 versus control group (Dunnett's test)", "setting": "[4]; trastuzumab emtansine iv Day 1, Example 11 po Days 1-14", "result": "significantly lower TV"}, {"measurement": "IC50", "setting": "[5]", "result": 6.6, "unit": "nM"}, {"measurement": "IC50", "setting": "[6]", "result": 0.55, "unit": "nM"}, {"measurement": "BWC (%, Mean ± SE)", "setting": "[7]; Example 11 6.25 mg/kg/day", "result": "3.69 ± 0.75", "unit": "%"}, {"measurement": "T/C (%)", "setting": "[7]; Example 11 6.25 mg/kg/day", "result": 22.0, "unit": "%"}, {"measurement": "TV (mm^3, mean ± SE)", "setting": "[7]; Example 11 6.25 mg/kg/day", "result": "448.7 ± 79.0", "unit": "mm^3"}, {"measurement": "BWC (%, Mean ± SE)", "setting": "[7]; Example 11 12.5 mg/kg/day", "result": "3.79 ± 1.07", "unit": "%"}, {"measurement": "T/C (%)", "setting": "[7]; Example 11 12.5 mg/kg/day", "result": 3.0, "unit": "%"}, {"measurement": "TV (mm^3, mean ± SE)", "setting": "[7]; Example 11 12.5 mg/kg/day", "result": "62.0 ± 6.9", "unit": "mm^3"}, {"measurement": "Number of Deaths", "setting": "[7]; Example 11 6.25 mg/kg/day", "result": 0}, {"measurement": "Number of Deaths", "setting": "[7]; Example 11 12.5 mg/kg/day", "result": 0}, {"measurement": "TV on Day 15 versus control group (Dunnett's test)", "setting": "[7]; trastuzumab iv Days 1 and 8 (except for the 20 mg/kg/day group), Example 11 po Days 1-14", "result": "significantly lower TV"}, {"measurement": "IC50", "setting": "[8]", "result": 0.36, "unit": "nM"}, {"measurement": "IC50", "setting": "[9]", "result": 6.8, "unit": "nM"}]}]}
